According to patent US7332489B2, “Methods and compositions of novel triazine compounds” (Reddy US Therapeutics, Inc., priority 2003, dated 2008):
Structures can show the parent of a compound that is named as a salt. Where two headings read alike, the source gives them in different places.

Key:
[1] = test system: Human aortic smooth muscle cells; test: Smooth muscle cell proliferation assay / anti-proliferation assay (perlecan); settings: for Proliferation Data (result in words): screens at 5 & 10 uM; for activity in anti-proliferation assay (Perlecan), in words: using the same activity scale used in Table 3
Procedure: Human aortic smooth muscle cells (Clonetics) were used. Cells were grown in basal medium containing 5% fetal bovine serum supplemented with growth factors, basic fibroblast growth factor, epidermal growth factor and insulin. […] The cells were then serum starved for 24 h to induce quiescence. Fresh growth medium containing no compound or 10 μM compound was then added and further incubated for 24 h. Cell number was determined by using a cell proliferation assay kit (Celltiter96 AQueous from Promega).

TNF-α induced IL-6 = test: TNF-α-induced IL-6 production determined by IL-6 ELISA; assay type: cell-based; settings: for Inflammation Data (result in words): concentration not given; for activity at 10 µM / inhibition at 10 µM: Homo sapiens; for % IL6 production compare to TNF stimulation of IL6 (100%), HAEC, IL6, @ 5 uM: compound 5 uM (bracketed value); for % IL6 production compare to TNF stimulation of IL6 (100%), Compds tested @ 10 μM HAEC, IL6: Table 7, 10 μM compound
In short: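 Human aortic endothelial cells grown to ≥90% confluence, then treated with compounds and stimuli in serum-free medium with 0.2% albumin. Secreted IL-6 in collected media measured by sandwich ELISA (2 ug/ml capture, 200 ng/ml biotinylated detection antibody, streptavidin-HRP), read at 450 nm.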

[2] = Homo sapiens, read-out: Activity (note 1), anti-proliferation assay (perlecan)
[3] = Homo sapiens, read-out: Avg IC-50, anti-proliferation assay (perlecan)
[4] = 24 h, Table 5, first part, class = % of control IL6 production, read-out: Inhibition of TNF-induced IL6 production
[5] = 10 uM compound, TNF stimulation = 100%
[6] = 24 h, read-out: Inhibition of TNF-induced IL6 production, Table 7, first part
[7] = 24 h, read-out: Inhibition of TNF-induced IL6 production, Table 7, second part, column 1
[8] = 24 h, Table 7, first part, read-out: Inhibition of TNF-induced IL6 production

For `COc1ccc(Nc2nc(NC3CCCCCC3)nc(N3CCCC3CO)n2)cc1Cl` (stereo not shown), the “Proliferation Data, cell morphology (rounding, blunting, morphology change)” value [1] was “rounding”, the “Proliferation Data (result in words)” value [1] was “Did not pass 5 & 10 uMscreens” and the “Inflammation Data (result in words)” value (TNF-α induced IL-6) was “Not Active”.
`COc1ccc(Nc2nc(NC3CCCCCC3)nc(N3CCN(C)CC3)n2)cc1Cl` was tested, and the “Proliferation Data, cell morphology (rounding, blunting, morphology change)” value [1] was “blunting androunding”, the “Proliferation Data (result in words)” value [1] was “Did not pass 5 & 10 uMscreens” and the “Inflammation Data, activity in words at 5 uM” value (TNF-α induced IL-6; 5 uM) was “not active”. For the same molecule, the “Inflammation Data, cell death at 5 uM” value (TNF-α induced IL-6; 5 uM) was 25% and the “Inflammation Data, cell death at 10 uM” value (TNF-α induced IL-6; 10 uM) was “total cell death”.
`CCc1occc(=O)c1Oc1nc(Nc2ccc(OC)c(Cl)c2)nc(NC2CCCCCC2)n1` was tested, and the “Proliferation Data (result in words)” value [1] was “Not active at 5 & 10 uM” and the “Inflammation Data, cell death at 10 uM” value (TNF-α induced IL-6; 10 uM) was 20%.
With `COc1ccc(Nc2nc(NC3CCCCCC3)nc(OC3CCN(C)CC3)n2)cc1Cl` the “Proliferation Data, cell morphology (rounding, blunting, morphology change)” value [1] was “rounding at 5 & 10 uM” and the “Inflammation Data, cell death at 10 uM” value (TNF-α induced IL-6; 10 uM) was “total cell death”.
`COc1ccc(Nc2nc(NC3CCCCCC3)nc(NC3CCN(Cc4ccccc4)CC3)n2)cc1F` was tested, and the “Proliferation Data, cell morphology (rounding, blunting, morphology change)” value [1] was “cell bluntingat 3 uM and rounding at 5 uM”, the “Inflammation Data, cell death at 5 uM” value (TNF-α induced IL-6; 5 uM) was 25% and the “Inflammation Data, cell death at 10 uM” value (TNF-α induced IL-6; 10 uM) was “total cell death”.
`COc1ccc(Nc2nc(NC3CCCCCC3)nc(N(C)C3CCN(C)CC3)n2)cc1Br` [Compound 123, N-(3-Bromo-4-methoxy-phenyl)-N′-cycloheptyl-N″-methyl-N″-(1-methyl-piperidin-4-yl)-[1,3,5]triazine-2,4,6-triamine] was tested, and the IC50 [1, 2] was greater than 7 µM.
Work on `CCN1CCC[C@H]1CNc1nc(Nc2ccc(OC)c(F)c2)nc(NC2CCCCCC2)n1` [Compound 139, N^2-cycloheptyl-N^4-((S)-1-ethyl-pyrrolidin-2-ylmethyl)-N^6-(3-fluoro-4-methoxyphenyl)-1,3,5-triazine-2,4,6-triamine] yielded an IC50 [1, 2] of 3 to 7 µM, an IC50 [1, 3] of 4 to 5 µM and an activity at 10 µM (TNF-α induced IL-6; [4]) of 0 to 25%.
For `CCN1CCC[C@@H]1CNc1nc(Nc2ccc(OC)c(F)c2)nc(NC2CCCCCC2)n1` [Compound 140, N^2-cycloheptyl-N^4-((R)-1-ethyl-pyrrolidin-2-ylmethyl)-N^6-(3-fluoro-4-methoxyphenyl)-1,3,5-triazine-2,4,6-triamine], the IC50 [1, 2] was 3 to 7 µM, the IC50 [1, 3] was 4 to 5 µM and the “% IL6 production compare to TNF stimulation of IL6 (100%), Compds tested @ 10 uM HAEC, IL6” value (TNF-α induced IL-6; [5]) was 12.57%. For the same molecule, the activity at 10 µM (TNF-α induced IL-6; [4]) was 0 to 25%.
`CCN1CCC[C@@H]1CNc1nc(NCC2CCCCC2)nc(Nc2ccc(OC)c(F)c2)n1` [Compound 142, N^2-cyclohexylmethyl-N^4-((R)-1-ethyl-pyrrolidin-2-ylmethyl)-N^6-(3-fluoro-4-methoxyphenyl)-1,3,5-triazine-2,4,6-triamine] was tested, and the “% IL6 production compare to TNF stimulation of IL6 (100%), Compds tested @ 10 uM HAEC, IL6” value (TNF-α induced IL-6; [5]) was 21.62% and the activity at 10 µM (TNF-α induced IL-6; [4]) was 0 to 25%.
`CCN1CCC[C@H]1CNc1nc(NC2CCCCCC2)nc(N(CC#N)c2ccccc2)n1` [Compound 143, ({4-cycloheptylamino-6-[((S)-1-ethyl-pyrrolidin-2-ylmethyl)-amino]-1,3,5-triazin-2-yl}-phenyl-amino)-acetonitrile] was tested, and the “% IL6 production compare to TNF stimulation of IL6 (100%), Compds tested @ 10 uM HAEC, IL6” value (TNF-α induced IL-6; [5]) was 18.88% and the activity at 10 µM (TNF-α induced IL-6; [4]) was 0 to 25%.
Molecule `CCN1CCC[C@@H]1CNc1nc(NC2CCCCCC2)nc(N(CC#N)c2ccccc2)n1` [Compound 144, ({4-cycloheptylamino-6-[((R)-1-ethyl-pyrrolidin-2-ylmethyl)-amino]-1,3,5-triazin-2-yl}-phenyl-amino)-acetonitrile] has an activity at 10 µM (TNF-α induced IL-6; [4]) of 0 to 25%.
`COc1ccc(Nc2nc(NC3CC3)nc(NC3CC3)n2)cc1F` [Compound 157, N,N′-dicyclopropyl-N″-(3-fluoro-4-methoxy-phenyl)-1,3,5-triazine-2,4,6-triamine] was tested, and the “% IL6 production compare to TNF stimulation of IL6 (100%), Compds tested @ 10 uM HAEC, IL6” value (TNF-α induced IL-6; [5]) was 60.48% and the activity at 10 µM (TNF-α induced IL-6; [4]) was 50 to 75%.
For `COc1ccc(Nc2nc(NC3CCCCCC3)nc(N(C)C3CCN(C)CC3)n2)cc1F` [Compound 160, N^2-cycloheptyl-N^4-(3-fluoro-4-methoxyphenyl)-N^6-methyl-N^6-(1-methyl-piperidin-4-yl)-1,3,5-triazine-2,4,6-triamine, hydrogen chloride salt], the IC50 ([1]; read-out: Activity (note 1), anti-proliferation assay (perlecan)) was 3 to 7 µM, the IC50 ([1]; read-out: Avg IC-50, anti-proliferation assay (perlecan)) was 4 to 5 µM and the activity at 10 µM (TNF-α induced IL-6; 24 h, read-out: % IL6 production compare to TNF stimulation of IL6 (100%), Compds tested @ 10 uM HAEC, IL6) was 1%. For the same molecule, the activity at 10 µM (TNF-α induced IL-6; 24 h, read-out: Inhibition of TNF-induced IL6 production) was 0 to 25%.
`COc1ccc(Nc2nc(NC3CCCCCC3)nc(N(C)C3CCN(C)CC3)n2)cc1F` [Compound 168, N^2-cycloheptyl-N^4-(3-fluoro-4-methoxy-phenyl)-N^6-methyl-N^6-(1-methyl-piperidin-4-yl)-1,3,5-triazine-2,4,6-triamine citrate salt] was tested, and the “% IL6 production compare to TNF stimulation of IL6 (100%), HAEC, IL6, @ 5 uM” value (TNF-α induced IL-6; TNF stimulated, citrate salt) was 40% and the “% IL6 production compare to TNF stimulation of IL6 (100%), Compds tested @ 10 uM HAEC, IL6” value (TNF-α induced IL-6; TNF stimulated, compound 10 uM) was “total cell death”.
With `COc1ccc(Nc2nc(NC3CCCCCC3)nc(N(C)C3CCN(C)CC3)n2)cc1F` [Compound 169, N^2-cycloheptyl-N^4-(3-fluoro-4-methoxy-phenyl)-N^6-methyl-N^6-(1-methyl-piperidin-4-yl)-1,3,5-triazine-2,4,6-triamine succinate salt] the “% IL6 production compare to TNF stimulation of IL6 (100%), HAEC, IL6, @ 5 uM” value (TNF-α induced IL-6; TNF stimulated, succinate salt) was 45%.
For `COc1ccc(Nc2nc(NC3CCCCCC3)nc(N(C)C3CCN(C)CC3)n2)cc1F` [Compound 171, N-Cycloheptyl-N′-(3-fluoro-4-methoxy-phenyl)-N″-methyl-N″-(1-methyl-piperidin-4-yl)-[1,3,5]tri-azine-2,4,6-triamine], the inhibition at 10 µM (TNF-α induced IL-6; [6]) was 85 to 100%, the inhibition at 10 µM (TNF-α induced IL-6; [7]) was 65 to 85% and the “% IL6 production compare to TNF stimulation of IL6 (100%), Compds tested @ 10 μM HAEC, IL6” value (TNF-α induced IL-6; TNF stimulation = 100%) was 21%.
In the case of `CN1CCC(N(C)c2nc(Nc3ccc4ccccc4c3)nc(NC3CCCCCC3)n2)CC1` [Compound 172, N-Cycloheptyl-N′-methyl-N′-(1-methyl-piperidin-4-yl)-N″-naphthalen-2-yl-[1,3,5]tri-azine-2,4,6-triamine], the inhibition at 10 µM (TNF-α induced IL-6; [6]) is reported as 85 to 100%, the inhibition at 10 µM (TNF-α induced IL-6; [7]) is reported as 65 to 85% and the “% IL6 production compare to TNF stimulation of IL6 (100%), Compds tested @ 10 μM HAEC, IL6” value (TNF-α induced IL-6; TNF stimulation = 100%) is reported as 18%.
With `COc1ccc(Nc2nc(N3CCOCC3)nc(N3CCN(Cc4ccccc4)CC3)n2)cc1` [Compound 173, [4-(4-Benzyl-piperazin-1-yl)-6-morpholin-4-yl-[1,3,5]tri-azin-2-yl]-(4-methoxy-phenyl)-amine] the inhibition at 10 µM (TNF-α induced IL-6; [8]) was 65 to 85%.
Molecule `c1ccc2cc(Nc3nc(NC4CCCCCC4)nc(N4CCOCC4)n3)ccc2c1` [Compound 174, N-Cycloheptyl-6-morpholin-4-yl-N′-naph-thalen-2-yl-[1,3,5]triazine-2,4-diamine] has an inhibition at 10 µM (TNF-α induced IL-6; [8]) of 85 to 100%.
With `COc1ccc(Nc2nc(NC3CCCCCC3)nc(N3CCOCC3)n2)cc1F` [Compound 175, N-Cycloheptyl-N′-(3-fluoro-4-methoxy-phenyl)-6-morpholin-4-yl-[1,3,5]triazine-2,4-di-amine] the inhibition at 10 µM (TNF-α induced IL-6; [8]) was 85 to 100%.
`c1ccc(Nc2nc(NC3CCCCCC3)nc(N3CCOCC3)n2)cc1` [Compound 176, N-Cycloheptyl-6-morpholin-4-yl-N′-phenyl-[1,3,5]tri-azine-2,4-diamine] was tested, and the inhibition at 10 µM (TNF-α induced IL-6; [8]) was 85 to 100%.
With `COc1ccc(Nc2nc(NC3CCCCCC3)nc(N3CCOCC3)n2)cc1` [Compound 177, N-Cycloheptyl-N′-(4-methoxy-phenyl)-6-mor-pholin-4-yl-[1,3,5]triazine-2,4-diamine] the inhibition at 10 µM (TNF-α induced IL-6; [8]) was 85 to 100% and the inhibition at 10 µM (TNF-α induced IL-6; 24 h, Table 7, second part, column 1, read-out: Inhibition of TNF-induced IL6 production) was 65 to 85%.
Work on `COc1ccc(Nc2nc(NC3CCCCCC3)nc(N(C)Cc3ccccc3)n2)cc1` [Compound 178, N-Benzyl-N′-cycloheptyl-N″-(4-methoxy-phenyl)-N-methyl-[1,3,5]triazine-2,4,6-tri-amine] yielded an inhibition at 10 µM (TNF-α induced IL-6; [8]) of 65 to 85%.
For `CN1CCC(N(C)c2nc(NCCC3OCCO3)nc(Nc3ccc4ccccc4c3)n2)CC1` [Compound 179, N-(2-[1,3]Dioxolan-2-yl-ethyl)-N′-methyl-N′-(1-meth-yl-piperidin-4-yl)-N″-naphthalen-2-yl-[1,3,5]tri-azine-2,4,6-triamine], the inhibition at 10 µM (TNF-α induced IL-6; [6]) was 65 to 85% and the inhibition at 10 µM (TNF-α induced IL-6; [7]) was 50 to 65%.
For `COc1ccc(Nc2nc(NC3CCCCCC3)nc(N(C)C3CCN(C)CC3)n2)cc1F` [N^2-cycloheptyl-N^4-(3-fluoro-4-methoxyphenyl)-N^6-methyl-N^6-(1-methyl-piperidin-4-yl)-1,3,5-triazine-2,4,6-triamine], the “activity in anti-proliferation assay (Perlecan), in words” value [1] was “medium or moderate activity”.
With `CN1CCC(N(C)c2nc(Nc3ccc4ccccc4c3)nc(NC3CCCCCC3)n2)CC1` [N^2-cycloheptyl-N^4-methyl-N^4-(1-methyl-piperidin-4-yl)-N^6-naphthalen-2-yl-1,3,5-triazine-2,4,6-triamine] the “activity in anti-proliferation assay (Perlecan), in words” value [1] was “high activity”.
Molecule `COc1ccc(Nc2nc(NC3CCCCCC3)nc(OC(C)C)n2)cc1Cl` [drawing 1598] has an inhibition at 10 µM (TNF-α induced IL-6; 10 uM, read-out: Inflammation Data, inhibition at 10 uM) of less than 25%.
In the case of `COc1ccc(Nc2nc(NC3CCCCCC3)nc(OCC3CCCN3)n2)cc1Cl` (stereo not shown) [drawing 1599], the “Proliferation Data (result in words)” value [1] is reported as “Not active at 5 & 10 uM”.
With `COc1ccc(Nc2nc(NC3CCCCCC3)nc(N3CCSCC3)n2)cc1Cl` [drawing 1604] the “Inflammation Data (result in words)” value (TNF-α induced IL-6) was “Not Active”.
For `COc1ccc(Nc2nc(NC3CCCCCC3)nc(Oc3ccccc3F)n2)cc1Cl` [drawing 1605], the “Inflammation Data (result in words)” value (TNF-α induced IL-6) was “Not Active”.
